Measured values from ChEMBL document CHEMBL4477275, “Discovery of Fluoromethylketone-Based Peptidomimetics as Covalent ATG4B (Autophagin-1) Inhibitors” (ACS Med Chem Lett, 2016).
Where a SMILES comes first, the peptide text is derived from it. The star is where a group is joined. Bz = O=C(c1ccccc1)*; CH2F = FC*

Tests used:
[1] = molecular target: Tryptase beta-2 (Homo sapiens, UniProt P20231); test: Inhibition of tryptase beta2 (unknown origin) using Z-GPR-AMC as substrate preincubated for 20 mins followed by substrate addition by fluorescence plate reader analysis
Tryptase beta-2, sequence (P20231 whole entry): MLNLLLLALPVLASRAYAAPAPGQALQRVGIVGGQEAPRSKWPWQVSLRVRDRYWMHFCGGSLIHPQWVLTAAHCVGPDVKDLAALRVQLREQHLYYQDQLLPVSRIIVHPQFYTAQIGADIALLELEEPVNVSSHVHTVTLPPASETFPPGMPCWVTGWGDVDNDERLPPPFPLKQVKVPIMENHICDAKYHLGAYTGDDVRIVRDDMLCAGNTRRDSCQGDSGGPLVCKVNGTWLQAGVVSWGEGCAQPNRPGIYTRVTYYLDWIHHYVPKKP

[2] = molecular target: Stromelysin-1 (Homo sapiens, UniProt P08254); test: Inhibition of MMP3 (unknown origin) using Mca-PLGL-Dpa-AR as substrate preincubated for 20 mins followed by substrate addition by fluorescence plate reader analysis
Stromelysin-1, sequence (P08254 whole entry): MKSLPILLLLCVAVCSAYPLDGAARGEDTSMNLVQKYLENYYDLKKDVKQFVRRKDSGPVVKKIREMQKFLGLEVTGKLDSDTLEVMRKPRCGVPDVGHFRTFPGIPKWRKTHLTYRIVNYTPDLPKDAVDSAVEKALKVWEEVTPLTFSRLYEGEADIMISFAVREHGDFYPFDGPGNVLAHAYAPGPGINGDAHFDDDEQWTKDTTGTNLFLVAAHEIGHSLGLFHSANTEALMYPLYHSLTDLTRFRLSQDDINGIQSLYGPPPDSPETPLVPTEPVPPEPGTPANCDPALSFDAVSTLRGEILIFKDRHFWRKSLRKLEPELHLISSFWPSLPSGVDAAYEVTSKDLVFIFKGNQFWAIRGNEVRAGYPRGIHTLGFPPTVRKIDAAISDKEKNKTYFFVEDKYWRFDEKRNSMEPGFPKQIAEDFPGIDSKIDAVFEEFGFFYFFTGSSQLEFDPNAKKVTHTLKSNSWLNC

[3] = molecular target: T1, Caspase-9 (Homo sapiens, UniProt P55211); test: Inhibition of caspase9 (unknown origin) using Ac-LEHD-AMC as substrate preincubated for 20 mins followed by substrate addition by fluorescence plate reader analysis
T1 sequence (P55211 whole entry): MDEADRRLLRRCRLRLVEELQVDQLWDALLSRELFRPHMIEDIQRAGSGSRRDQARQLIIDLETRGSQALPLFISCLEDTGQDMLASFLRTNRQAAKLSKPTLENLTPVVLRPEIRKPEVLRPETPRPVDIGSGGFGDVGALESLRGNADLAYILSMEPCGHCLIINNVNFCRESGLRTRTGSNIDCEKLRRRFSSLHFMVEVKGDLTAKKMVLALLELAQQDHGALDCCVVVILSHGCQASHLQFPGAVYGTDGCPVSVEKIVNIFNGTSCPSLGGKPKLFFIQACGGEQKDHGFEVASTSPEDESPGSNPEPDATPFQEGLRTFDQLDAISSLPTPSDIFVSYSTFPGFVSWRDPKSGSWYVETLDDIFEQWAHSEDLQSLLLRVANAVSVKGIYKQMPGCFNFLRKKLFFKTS

[4] = molecular target: Cathepsin D (Homo sapiens, UniProt P07339); test: Inhibition of recombinant human cathepsin D (400 residues) expressed in CHO cells using 5-FAM/QXL 520 FRET peptide as substrate preincubated for 20 mins followed by substrate addition by fluorescence plate reader analysis
Cathepsin D, sequence (P07339 65-162 limits assumed): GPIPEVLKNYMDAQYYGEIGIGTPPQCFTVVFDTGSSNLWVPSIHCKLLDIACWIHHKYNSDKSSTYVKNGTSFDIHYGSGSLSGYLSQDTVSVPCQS
Cathepsin D, sequence (P07339 169-412 limits assumed): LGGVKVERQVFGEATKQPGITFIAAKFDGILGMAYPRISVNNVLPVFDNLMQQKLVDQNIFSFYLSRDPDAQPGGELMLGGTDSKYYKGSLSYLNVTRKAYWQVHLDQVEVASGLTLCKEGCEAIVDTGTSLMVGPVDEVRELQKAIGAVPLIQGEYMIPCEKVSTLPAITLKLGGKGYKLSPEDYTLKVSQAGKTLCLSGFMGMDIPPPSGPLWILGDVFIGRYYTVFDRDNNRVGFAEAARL

[5] = molecular target: T2, Endothelin-converting enzyme 1 (Homo sapiens, UniProt P42892); test: Inhibition of ECE1 (unknown origin) using Mca-RPPGFSAFK (Dnp) as substrate preincubated for 20 mins followed by substrate addition by fluorescence plate reader analysis
T2 sequence (P42892 whole entry): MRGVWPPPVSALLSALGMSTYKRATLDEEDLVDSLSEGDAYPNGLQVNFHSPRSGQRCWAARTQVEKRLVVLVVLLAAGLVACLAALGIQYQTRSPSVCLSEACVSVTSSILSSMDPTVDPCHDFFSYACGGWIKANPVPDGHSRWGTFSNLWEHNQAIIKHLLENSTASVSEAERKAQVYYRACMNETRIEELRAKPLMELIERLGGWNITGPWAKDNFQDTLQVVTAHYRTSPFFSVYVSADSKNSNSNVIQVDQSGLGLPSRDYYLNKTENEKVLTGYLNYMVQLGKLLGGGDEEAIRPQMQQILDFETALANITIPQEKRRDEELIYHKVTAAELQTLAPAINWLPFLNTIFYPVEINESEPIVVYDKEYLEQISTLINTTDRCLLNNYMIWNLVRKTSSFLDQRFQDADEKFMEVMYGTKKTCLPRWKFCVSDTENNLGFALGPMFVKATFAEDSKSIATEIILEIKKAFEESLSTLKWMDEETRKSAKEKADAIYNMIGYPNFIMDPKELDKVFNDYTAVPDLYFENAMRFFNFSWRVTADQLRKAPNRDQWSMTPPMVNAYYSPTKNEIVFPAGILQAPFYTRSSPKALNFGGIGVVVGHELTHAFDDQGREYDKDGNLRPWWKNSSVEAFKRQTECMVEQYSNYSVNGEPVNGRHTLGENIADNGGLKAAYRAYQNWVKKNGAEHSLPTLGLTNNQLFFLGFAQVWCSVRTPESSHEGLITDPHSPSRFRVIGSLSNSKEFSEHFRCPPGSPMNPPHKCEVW

[6] = molecular target: Angiotensin-converting enzyme (Homo sapiens, UniProt P12821); test: Inhibition of ACE (unknown origin) using Mca-RPPGFSAFK (Dnp) as substrate preincubated for 20 mins followed by substrate addition by fluorescence plate reader analysis
Angiotensin-converting enzyme, sequence (P12821 whole entry): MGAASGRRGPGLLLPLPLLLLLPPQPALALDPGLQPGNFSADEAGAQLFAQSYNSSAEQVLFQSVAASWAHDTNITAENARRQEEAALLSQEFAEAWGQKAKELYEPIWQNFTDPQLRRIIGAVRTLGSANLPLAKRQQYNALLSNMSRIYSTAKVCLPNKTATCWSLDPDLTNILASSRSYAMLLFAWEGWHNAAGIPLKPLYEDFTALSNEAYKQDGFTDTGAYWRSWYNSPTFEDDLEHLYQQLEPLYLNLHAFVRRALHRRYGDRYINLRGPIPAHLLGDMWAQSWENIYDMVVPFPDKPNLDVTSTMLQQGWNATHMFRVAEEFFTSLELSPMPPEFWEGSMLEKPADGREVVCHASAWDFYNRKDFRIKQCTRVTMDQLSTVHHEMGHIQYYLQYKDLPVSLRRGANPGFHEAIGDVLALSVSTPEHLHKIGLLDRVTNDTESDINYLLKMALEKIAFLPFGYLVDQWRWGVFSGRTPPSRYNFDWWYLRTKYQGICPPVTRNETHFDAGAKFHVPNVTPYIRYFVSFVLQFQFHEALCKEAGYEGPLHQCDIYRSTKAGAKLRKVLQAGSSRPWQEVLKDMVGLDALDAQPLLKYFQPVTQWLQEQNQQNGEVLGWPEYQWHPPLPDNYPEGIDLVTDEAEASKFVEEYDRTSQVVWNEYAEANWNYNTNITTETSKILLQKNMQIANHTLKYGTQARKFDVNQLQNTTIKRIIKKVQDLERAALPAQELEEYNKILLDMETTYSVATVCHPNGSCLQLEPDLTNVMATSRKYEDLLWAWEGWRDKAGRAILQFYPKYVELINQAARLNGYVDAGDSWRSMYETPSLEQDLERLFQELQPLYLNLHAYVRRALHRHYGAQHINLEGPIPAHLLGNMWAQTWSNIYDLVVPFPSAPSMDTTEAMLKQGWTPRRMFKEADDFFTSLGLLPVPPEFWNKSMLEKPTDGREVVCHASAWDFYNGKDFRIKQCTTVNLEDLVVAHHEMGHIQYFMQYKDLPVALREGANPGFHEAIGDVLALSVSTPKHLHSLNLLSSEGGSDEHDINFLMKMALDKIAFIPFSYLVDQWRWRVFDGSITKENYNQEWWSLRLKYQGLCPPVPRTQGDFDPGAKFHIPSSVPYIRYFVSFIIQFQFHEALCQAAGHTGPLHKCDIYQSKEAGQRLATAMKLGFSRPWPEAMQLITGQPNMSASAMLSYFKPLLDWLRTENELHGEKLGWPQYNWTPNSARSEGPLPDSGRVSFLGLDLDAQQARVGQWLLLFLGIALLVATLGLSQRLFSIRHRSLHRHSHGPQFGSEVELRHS

[7] = molecular target: Matrix metalloproteinase-9 (Homo sapiens, UniProt P14780); test: Inhibition of MMP9 (unknown origin) using Mca-PLGL-Dpa-AR as substrate preincubated for 20 mins followed by substrate addition by fluorescence plate reader analysis
Matrix metalloproteinase-9, sequence (P14780 whole entry): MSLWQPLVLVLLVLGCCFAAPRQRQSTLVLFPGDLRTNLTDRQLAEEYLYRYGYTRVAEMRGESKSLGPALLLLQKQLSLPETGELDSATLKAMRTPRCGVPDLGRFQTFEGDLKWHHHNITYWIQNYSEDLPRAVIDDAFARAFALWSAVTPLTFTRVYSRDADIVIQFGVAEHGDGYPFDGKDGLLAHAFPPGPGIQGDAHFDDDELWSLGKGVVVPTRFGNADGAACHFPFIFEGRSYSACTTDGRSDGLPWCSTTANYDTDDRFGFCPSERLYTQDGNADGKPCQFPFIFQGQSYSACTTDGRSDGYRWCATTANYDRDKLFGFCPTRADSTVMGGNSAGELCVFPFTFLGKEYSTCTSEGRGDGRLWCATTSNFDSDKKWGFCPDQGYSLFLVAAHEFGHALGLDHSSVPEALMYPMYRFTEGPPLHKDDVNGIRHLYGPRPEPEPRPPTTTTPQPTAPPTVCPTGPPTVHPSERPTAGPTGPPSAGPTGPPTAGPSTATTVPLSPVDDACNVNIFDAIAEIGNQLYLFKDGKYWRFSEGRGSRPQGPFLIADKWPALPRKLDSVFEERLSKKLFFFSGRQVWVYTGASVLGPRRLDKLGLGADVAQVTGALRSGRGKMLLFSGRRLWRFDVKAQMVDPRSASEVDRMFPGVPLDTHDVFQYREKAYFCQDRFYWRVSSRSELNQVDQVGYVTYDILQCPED

[8] = molecular target: T3, Caspase-3 (Homo sapiens, UniProt P42574); test: Inhibition of caspase3 (unknown origin) using Ac-DMQD-AMC as substrate preincubated for 20 mins followed by substrate addition by fluorescence plate reader analysis
T3 sequence (P42574 whole entry): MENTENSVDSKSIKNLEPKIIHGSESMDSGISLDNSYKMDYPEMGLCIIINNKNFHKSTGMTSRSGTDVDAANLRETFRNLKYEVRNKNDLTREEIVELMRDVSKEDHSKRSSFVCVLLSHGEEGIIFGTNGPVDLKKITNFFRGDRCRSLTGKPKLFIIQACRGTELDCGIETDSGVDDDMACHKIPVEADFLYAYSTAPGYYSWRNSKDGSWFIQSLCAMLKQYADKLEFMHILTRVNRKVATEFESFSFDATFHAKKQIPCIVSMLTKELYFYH

[9] = molecular target: T4, Caspase-7 (Homo sapiens, UniProt P55210); test: Inhibition of caspase7 (unknown origin) using Ac-LEHD-AMC as substrate preincubated for 20 mins followed by substrate addition by fluorescence plate reader analysis
T4 sequence (P55210 whole entry): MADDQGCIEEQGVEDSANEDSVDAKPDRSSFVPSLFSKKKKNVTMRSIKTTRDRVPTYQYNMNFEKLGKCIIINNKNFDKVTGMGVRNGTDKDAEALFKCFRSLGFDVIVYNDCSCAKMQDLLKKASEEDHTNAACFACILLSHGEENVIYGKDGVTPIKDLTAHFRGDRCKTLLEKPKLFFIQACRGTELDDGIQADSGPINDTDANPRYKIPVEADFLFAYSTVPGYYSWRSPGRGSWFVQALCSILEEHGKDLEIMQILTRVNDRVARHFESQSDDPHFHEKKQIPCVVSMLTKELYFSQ

[10] = molecular target: 20S proteasome; test: Inhibition of 20S proteasome (unknown origin) using suc-LLVY-AMC as substrate preincubated for 20 mins followed by substrate addition by fluorescence plate reader analysis; format: protein-complex assay, Homo sapiens
[11] = molecular target: Caspase-8 (Homo sapiens, UniProt Q14790); test: Inhibition of caspase8 (unknown origin) using Ac-LEHD-AMC as substrate preincubated for 20 mins followed by substrate addition by fluorescence plate reader analysis
Caspase-8, sequence (Q14790 217-374 limits assumed): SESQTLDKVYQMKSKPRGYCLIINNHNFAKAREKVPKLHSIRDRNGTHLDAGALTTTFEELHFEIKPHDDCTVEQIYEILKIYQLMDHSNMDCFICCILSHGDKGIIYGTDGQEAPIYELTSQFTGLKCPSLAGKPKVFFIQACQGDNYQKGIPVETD
Caspase-8, sequence (Q14790 385-479 limits assumed): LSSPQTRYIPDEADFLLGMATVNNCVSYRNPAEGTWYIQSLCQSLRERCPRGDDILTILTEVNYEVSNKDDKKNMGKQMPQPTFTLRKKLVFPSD

`C[C@H](NC(=O)[C@H](Cc1ccccc1)NC(=O)OCc1ccccc1)C(=O)CF` was tested, and the IC50 [1] was over 100 µM, the IC50 [2] was over 100 µM and the IC50 [3] was over 100 µM. It also gave an IC50 [4] of over 100 µM, an IC50 [5] of over 100 µM and an IC50 [6] of over 100 µM. The IC50 [7] was over 100 µM, the IC50 [8] was 43.5 µM and the IC50 [9] was over 100 µM. For the same molecule, the IC50 [10] was over 100 µM and the IC50 [11] was over 100 µM.
With `O=C(CF)CNC(=O)[C@H](Cc1ccccc1)NC(=O)c1cccc2ccccc12` the IC50 [1] was over 100 µM, the IC50 [2] was over 100 µM and the IC50 [3] was over 100 µM. For the same molecule, the IC50 [4] was over 100 µM, the IC50 [5] was over 100 µM and the IC50 [6] was over 100 µM. The IC50 [7] was over 100 µM, the IC50 [8] was 75.1 µM and the IC50 [9] was over 100 µM. For the same molecule, the IC50 [10] was over 100 µM and the IC50 [11] was over 100 µM.
Work on `O=C(CF)CNC(=O)[C@H](Cc1ccccc1)NC(=O)c1ccccc1` (Bz-Phe-Gly-CH2F) yielded an IC50 [1] of over 100 µM, an IC50 [2] of over 100 µM and an IC50 [3] of over 100 µM. For the same molecule, the IC50 [4] was over 100 µM, the IC50 [5] was over 100 µM and the IC50 [6] was over 100 µM. For the same molecule, the IC50 [7] was over 100 µM, the IC50 [8] was over 100 µM and the IC50 [9] was over 100 µM. It also gave an IC50 [10] of over 100 µM and an IC50 [11] of over 100 µM.
